Assays:
HT1080 cells = assay: Lipid droplet staining with BODIPY 493/503; format: cell-based, human; settings: CPBA 100 μM; T863 10 μM and PF-06424439 5 μM; 16 h
Description: HT1080 cells were seeded on glass coverslips (15,000 cells per well of 12-well plate) in complete DMEM, and incubated for 16 h with 100 μM CPBA or with 0.1% of the DMSO solvent control, in the absence or presence of inhibitors of DGAT1 and DGAT2 (10 μM T863/iDGAT1; 5 μM PF-06424439/iDGAT2). Cells were fixed with 4% para-formaldehyde, lipid droplets were stained with the neutral lipid droplet stain BODIPY 493/503 (2 μM, 30 min), and nuclei were counterstained with 4′,6-diamidino-2-phenylindole (DAPI). Cells were mounted with Immu-Mount (Fisher Scientific), and imaged by fluorescence microscopy on a THUNDER imager (THUNDER Imager Live Cell & 3D Cell Culture & 3D Assay system, Leica DMI8; Leica Microsystems), using a 63× objective.
We next investigated the impact of CPBA on triglyceride levels and ferroptosis sensitivity by first imaging lipid droplets with the neutral lipid stain BODIPY 493/503.
The diglyceride acyltransferase isoforms 1 and 2 (DGAT1, DGAT2) are required to catalyze the formation of triglycerides from diacylglycerol and acyl-CoA.

[1] = tested on: GPX4-KO/FSP1-OE HT1080 cells; assay: Viability of FSP1-dependent GPX4-KO cells with serial dilutions of CPBA, no FINs; format: cell-based, human; settings: GPX4-KO, FSP1-dependent cells treated with CPBA
Description: The following HT1080 fibrosarcoma cell lines were generated using CRISPR/Cas9 technology, as previously described (Doll et al., 2019): HT1080 GPX4-knockout (KO) cells (maintained in the presence of 100 μM α-tocopherol); HT1080 GPX4 knockout cells overexpressing FSP1 (GPX4-KO/FSP1-OE); GPX4-KO cells overexpressing FSP1 and re-expressing GPX4 (GPX4-KO/FSP1-OE/GPX4-OE); HT1080 FSP1-WT or FSP1-KO cells; and HT1080 FSP1-KO cells reconstituted with either FSP1-WT or FSP1-G2A. LOX-IMVI (BRAF V600E heterozygous human melanoma cells) expressing either the Venus mock vector or FSP1-Venus (Doll et al., 2019) were grown in RPMI-1640 supplemented with 10% FCS, 2 mM L-glutamine and Pen/Strep.
Next, we tested the effect of CPBA on ferroptotic cell death in GPX4-deficient HT1080 cells whose survival depends on the expression of FSP1 in order to suppress ferroptosis in the absence of GPX4. GPX4 knockout cells overexpressing FSP1 (GPX4-KO/FSP1-OE), or GPX4-KO cells overexpressing FSP1 and re-expressing GPX4 (GPX4-KO/FSP1-OE/GPX4-OE) were incubated with serial dilutions of CPBA. Note that no ferroptosis inducers (FINs) were added. Protein expression was confirmed by Western Blot as described above (see FIG. 11).

| Structure (SMILES) | lipid droplets (HT1080 cells) | prevention of CPBA-induced cell death [1] |
| --- | --- | --- |
| CC1(C)Oc2ncnc(N)c2N=C1c1ccc([C@H]2CC[C@H](CC(=O)O)CC2)cc1 [T863] | blocked lipid droplet formation both in DMSO- and in CPBA-treated cells | – |
| Clc1cccc(CN=C2Nc3ccccc3NC23CCNCC3)c1 [liproxstatin-1, reference compound] | – | cell death is prevented by liproxstatin-1 |
| CS(=O)(=O)O.O=C([C@@H]1CCCN(c2ccc3[nH]c(C4(n5cc(Cl)cn5)CC4)nc3n2)C1)N1CCCC1 [PF-06424439] | blocked lipid droplet formation both in DMSO- and in CPBA-treated cells | – |

Source: patent publication US20250064762A1, “A SUBSTITUTED AROMATIC DICARBONIC ACID AMIDE AS AN INHIBITOR OF THE FERROPTOSIS SUPPRESSOR PROTEIN-1 (FSP1)” (JULIUS-MAXIMILIANS-UNIVERSITÄT WÜRZBURG, priority 2021, published 2025)
